From patent publication US5972945A, “2-aminoalkylaminoquinolines; dopamine receptor subtype specific ligands” (Neurogen Corporation, priority 1998, dated 1999)

Key:
[1] = biological target: T1, D2 receptor (Chlorocebus aethiops, UniProt P52702); assay: D2 receptor binding (3H-YM 09151-2 displacement); design: species or system African Green monkey; details: Table 1; 0.5 nM 3H-YM 09151-2, COS cells with recombinant receptor
T1 construct: expressed in transfected cells; host or cells: COS cells
Procedure: (§1) Pellets of COS cells containing recombinantly produced D2 or D4 receptors from African Green monkey were used for the assays. The sample is homogenized in 100 volumes (w/vol) of 0.05 M Tris HCl buffer at 4° C. and pH 7.4. The sample is then centrifuged at 30,000×g and resuspended and rehomogenized. The sample is then centrifuged as described and the final tissue sample is frozen until use. The tissue is resuspended 1:20 (wt/vol) in 0.05 M Tris HCl buffer containing 100 mM NaCl.
(§2) Incubations are carried out at […] and contain 0.4 ml of tissue sample, 0.5 nM ^3 H-YM 09151-2 and the compound of interest in a total incubation of 1.0 ml. Nonspecific binding is defined as that binding found in the presence of […]; without further additions nonspecific binding is less than 20% of total binding. Binding characteristics of various compounds of the invention for D2 and D4 receptor subtypes are shown in Table 1 for […].

[2] = biological target: D4 receptor; assay: D4 receptor binding (3H-YM 09151-2 displacement); design: species or system African Green monkey; details: for Ki: Table 1, 0.5 nM 3H-YM 09151-2, COS cells with recombinant receptor; for D4: Table 2, compounds of U.S. Pat. No. 5,093,333 (Saab), parameter and unit not given
Procedure: as §1, §2

[3] = system: M1 Muscarinic subtype; assay: M1 muscarinic subtype assay essentially as in U.S. Pat. No. 5,093,333; type: binding
Procedure: (§3) Various compounds of the invention were also evaluated in M1 and M2 Muscarinic subtype assays essentially as set forth in U.S. Pat. No. 5,093,333.

[4] = system: M2 Muscarinic subtype; assay: M2 muscarinic subtype assay essentially as in U.S. Pat. No. 5,093,333; type: binding
Procedure: as §3

[5] = Table 2, compounds of U.S. Pat. No. 5,093,333 (Saab), parameter and unit not given

T1 sequence (P52702 whole entry): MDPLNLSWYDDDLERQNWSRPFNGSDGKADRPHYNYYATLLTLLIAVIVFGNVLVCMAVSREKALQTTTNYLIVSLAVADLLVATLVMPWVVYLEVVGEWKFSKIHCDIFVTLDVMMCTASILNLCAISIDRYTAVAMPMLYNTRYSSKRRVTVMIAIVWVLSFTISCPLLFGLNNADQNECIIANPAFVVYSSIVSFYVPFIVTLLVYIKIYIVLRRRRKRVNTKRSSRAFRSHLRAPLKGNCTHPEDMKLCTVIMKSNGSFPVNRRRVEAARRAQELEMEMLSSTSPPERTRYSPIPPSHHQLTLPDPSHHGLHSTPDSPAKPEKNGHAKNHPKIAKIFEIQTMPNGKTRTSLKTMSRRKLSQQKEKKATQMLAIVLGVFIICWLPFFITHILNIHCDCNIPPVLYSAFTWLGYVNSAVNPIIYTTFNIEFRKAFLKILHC

| Ki [1] [nM] | Ki [2] [nM] | D4 [2] | SMILES | M1 [3, 5] | M2 [4, 5] | M1 ([3]; Table 1, parameter not stated) [nM] | M2 ([4]; Table 1, parameter not stated) [nM] |
| --- | --- | --- | --- | --- | --- | --- | --- |
| 3300 | 10 |  | Cc1cc(NCCCN2CCN(c3ncccn3)CC2)nc2ccccc12 [Compound 22, (4-methyl(2-quinolyl))(3-(4-(pyrimidin-2-yl)piperazinyl)propyl)amine] |  |  |  |  |
|  |  | > 1000 | Cc1cc(NCCCN2CCN(C)CC2)nc2ccccc12 [Saab Example 3] | 600 | 2800 |  |  |
|  |  | > 1000 | Cc1cc(NCCCN2CCCC2=O)nc2ccccc12 [Saab Example 7] | 1300 | 20000 |  |  |
|  | 30 |  | c1ccc(N2CCN(CCNC3=Nc4ccccc4CC3)CC2)nc1 [Compound 2, 2-3,4-dihdroquinolyl(2-(4-(2-pyridyl)piperazinyl)ethyl)amine] |  |  |  |  |
|  |  | > 1000 | Cc1cc(NCCCN2CCOCC2)nc2ccccc12 | 1200 | 2500 |  |  |
|  | 8 |  | Fc1cnc(N2CCN(CCNC3=Nc4ccccc4CC3)CC2)nc1 [Compound 3, 2-3,4-dihydroquinoly(2-(4-(5-fluoropyrimidin-2-yl)piperazinyl)ethyl)amine] |  |  | 128 | 144 |
| > 100 | 22 |  | Cc1cccc(N2CCN(CCCNc3ccc4ccccc4n3)CC2)c1C [Compound 21, (3-(4-(2,3-dimethylphenyl)piperazinyl)propyl)2-quinolylamine] |  |  |  |  |
|  |  | > 1000 | c1ccc2nc(NCCCN3CCOCC3)ccc2c1 [Saab Example 2] | 2500 | 11600 |  |  |
